Results reported in patent US7875607B2, “7,8-bicycloakyl-chroman derivatives” (Ampere Life Sciences, Inc., priority 2004, dated 2011).
pEC50, pIC50: −log10 of the molar value.

Legend:
[1] = molecular target: T1, human recombinant 5-lipoxygenase (Homo sapiens, UniProt P09917); assay: 5-Lipoxygenase enzyme assay; assay type: biochemical; conditions: 70 μM arachidonic acid, pH 7.4
T1 construct: purchased Cayman 60402
T1 sequence (P09917 1-674): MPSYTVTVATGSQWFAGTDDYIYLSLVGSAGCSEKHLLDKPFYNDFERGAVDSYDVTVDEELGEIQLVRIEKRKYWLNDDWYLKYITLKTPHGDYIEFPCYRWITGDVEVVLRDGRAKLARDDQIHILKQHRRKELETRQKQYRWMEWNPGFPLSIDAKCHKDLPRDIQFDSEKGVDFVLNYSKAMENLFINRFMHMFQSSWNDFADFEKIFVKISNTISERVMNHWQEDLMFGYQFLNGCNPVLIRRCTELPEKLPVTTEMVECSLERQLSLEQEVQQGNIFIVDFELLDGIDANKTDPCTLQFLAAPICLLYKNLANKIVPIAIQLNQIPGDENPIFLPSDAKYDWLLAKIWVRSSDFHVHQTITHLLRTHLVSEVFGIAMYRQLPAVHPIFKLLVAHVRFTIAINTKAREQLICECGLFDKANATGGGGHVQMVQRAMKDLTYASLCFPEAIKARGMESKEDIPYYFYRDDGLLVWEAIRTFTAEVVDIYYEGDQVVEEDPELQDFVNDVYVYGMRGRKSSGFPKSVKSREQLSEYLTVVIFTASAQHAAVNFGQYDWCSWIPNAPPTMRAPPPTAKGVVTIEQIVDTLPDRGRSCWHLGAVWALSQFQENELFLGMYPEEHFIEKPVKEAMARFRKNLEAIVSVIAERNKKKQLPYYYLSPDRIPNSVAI
In short: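 Human recombinant 5-LO (0.5 U) with compound in 50 mM Tris-HCl pH 7.4 reacted with 70 μM arachidonic acid for 10 min at room temperature. Hydroperoxide formation was read via FOX xylenol orange complex at 620 nm after 1 h; compounds at 5 concentrations from 10 μM, in triplicate.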

[2] = tested on: LTB4 production in heparinized whole blood; assay: Inhibition of LTB4 production in blood; assay type: cell-based, rat or mouse; conditions: 20 μM A23187, read-out: EC50, protection against LTB4
In short: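 Heparinized rat or mouse whole blood preincubated with test agent 10 min at 37°C, then stimulated with calcium ionophore A23187 (20 μM final) for 30 min. Plasma methanol-precipitated and LTB4 measured by EIA; percent inhibition versus vehicle used to derive IC50.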

[3] = molecular target: T2, porcine leukocyte 12/15-lipoxygenase (Sus scrofa, UniProt P16469); assay: 12/15-Lipoxygenase enzyme assay; assay type: biochemical; conditions: 70 μM arachidonic acid, pH 7.4; read-out: IC50, inhibition of 12/15-Lipoxygenase
T2 sequence (P16469 1-663): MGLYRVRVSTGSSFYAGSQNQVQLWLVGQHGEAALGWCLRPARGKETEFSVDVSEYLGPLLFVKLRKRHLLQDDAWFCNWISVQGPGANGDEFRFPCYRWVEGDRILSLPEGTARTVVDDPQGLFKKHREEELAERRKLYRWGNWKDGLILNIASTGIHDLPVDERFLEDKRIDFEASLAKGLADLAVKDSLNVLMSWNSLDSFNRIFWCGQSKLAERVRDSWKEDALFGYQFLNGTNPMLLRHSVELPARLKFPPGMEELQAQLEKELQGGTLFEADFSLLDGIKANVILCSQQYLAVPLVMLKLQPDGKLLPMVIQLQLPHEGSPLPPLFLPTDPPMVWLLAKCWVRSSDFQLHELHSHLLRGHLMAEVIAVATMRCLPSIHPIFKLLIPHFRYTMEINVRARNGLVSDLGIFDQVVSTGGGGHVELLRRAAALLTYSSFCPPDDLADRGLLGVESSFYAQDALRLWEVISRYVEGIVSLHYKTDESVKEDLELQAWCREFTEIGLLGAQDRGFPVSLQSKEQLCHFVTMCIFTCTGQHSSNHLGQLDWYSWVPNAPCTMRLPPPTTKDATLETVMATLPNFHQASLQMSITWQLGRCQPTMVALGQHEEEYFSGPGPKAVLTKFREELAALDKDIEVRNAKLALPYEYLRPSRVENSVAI
Protocol: This procedure was used for measuring the enzymatic activity of porcine leukocyte 12/15-lipoxygenase using a calorimetric method based on the ferric oxidation of xylenol orange.
Porcine Leukocyte 12/15-lipoxygenase (Cayman Cat # 60300) was used in this assay. Test compound and/or vehicle was added to 1.3U 12/15-lipoxygenase in 50 mM Tris-HCl buffer, pH 7.4. The reaction was initiated by addition of 70 μM arachidonic acid in Tris-HCl buffer, pH 7.4, and terminated after a 10 minute incubation at room temperature by addition of FOX reagent (25 mM sulphuric acid, 100 μM xylenol orange, 100 μM iron (II) sulphate, methanol:water 9:1). The yellow color of acidified xylenol orange was converted to a blue color by the lipid hydroperoxide-mediated oxidation of Fe^2+ ions and the interaction of the resulting Fe^3+ ions with the dye. The complex was allowed to form during a 1 hour incubation at room temperature with shaking. Absorbance of the Fe^3+ complex was then measured at […] using a spectrophotometer.
Negative controls contained enzyme during the incubation step but substrate was not added until after the FOX reagent.
Compounds are screened at 5 concentrations in triplicate starting at 10 μM

Row | SMILES | pIC50 [1] | pEC50 [2] | pIC50 [3]
1 | CC1(CCCSc2nccs2)CCc2cc(O)c3c(c2O1)C1CCC3C1 (stereo not drawn) [2-Methyl-2-[3-(thiazol-2-ylsulfanyl)-propyl]-3,4,7,8,9,10-hexahydro-7,10-methano-2H-benzo[h]chromen-6-ol] | ≥ 5.30 | ≥ 5.00 | ≥ 5.00
2 | CC1(C)CCc2cc(O)c3c(c2O1)C1CCC3CC1 [2,2-Dimethyl-3,4,7,8,9,10-hexahydro-7,10-ethano-2H-benzo[h]chromen-6-ol] | ≥ 5.30 | ≥ 5.00 | ≥ 5.00
3 | CC1(CCCCl)CCc2cc(O)c3c(c2O1)C1CCC3C1 (stereo not drawn) [2-(3-Chloro-propyl)-2-methyl-3,4,7,8,9,10-hexahydro-7,10-methano-2H-benzo[h]chromen-6-ol] | ≥ 5.30 | ≥ 5.00 | –
4 | CC(C)CSCCCC1(C)CCc2cc(O)c3c(c2O1)C1CCC3C1 (stereo not drawn) [2-(3-isobutylsulfanyl-propyl)-2-methyl-3,4,7,8,9,10-hexahydro-7,10-methano-2H-benzo[h]chromen-6-ol] | – | ≥ 5.00 | ≥ 5.00
5 | CC1(C)C=Cc2cc(O)c3c(c2O1)C1CCC3CC1 [2,2-Dimethyl-7,8,9,10-tetrahydro-7,10-ethano-2H-benzo[h]chromen-6-ol] | ≥ 5.30 | – | ≥ 5.00
